Results on eleven molecules are retold here after PubChem BioAssay (NCI).

Where “and” joins values, the source holds several entries; their conditions need not be identical. Equal values may be shown once.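 Growth conditions: 96-well plates. Treatment: test compound, 48 hours, 5 concentrations. Analysis: linear interpolation between bracketing concentrations; unreached endpoints set to highest concentration. GI50 marks 50% less growth. TGI: total growth inhibition.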

Among the test systems are CAKI-1 renal; CCRF-CEM leukemia; HCT-116 colon; M14 melanoma; NCI-H460 lung; OVCAR-5 ovarian; SF-295 CNS; UO-31 renal; SF-539 CNS; A498 renal.
Assay in all cases: inhibition of tumour cell growth, NCI panel, 48 h

For the molecule `CC(=O)OC12C(C)=C(C)C(=O)N1c1ccccc1N2C(C)=O` (stereo unspecified), the TGI in the assay with CAKI-1 renal, in the assay with CCRF-CEM leukemia, in the assay on HCT-116 colon, with M14 melanoma, in the assay on NCI-H460 lung and with OVCAR-5 ovarian was greater than 100 µM each time. For the same molecule, the TGI in the assay on SF-295 CNS and in the assay on UO-31 renal was greater than 100 µM in each case.

As to `COC(=O)/C=C1/SC(=Nc2cccc(Cl)c2)N(CCc2c[nH]c3ccc(O)cc23)C1=O`, the GI50 in the assay with CAKI-1 renal was 1.83 µM; in the assay on CCRF-CEM leukemia, 0.931 µM; in the assay on HCT-116 colon, 1.18 µM; in the assay with M14 melanoma, 1.62 µM; in the assay with NCI-H460 lung it was 2.04 µM; in the assay with OVCAR-5 ovarian it was 1.92 µM. Further, the GI50 is 1.85 µM with SF-295 CNS, 1.63 µM with SF-539 CNS and 1.43 µM with UO-31 renal. Moreover, the TGI with CAKI-1 renal came out at 3.67 µM; with CCRF-CEM leukemia, 5.27 µM; in the assay on HCT-116 colon, 2.71 µM; in the assay with M14 melanoma it was 3.36 µM; in the assay with NCI-H460 lung it was 4.1 µM; with OVCAR-5 ovarian it was 4.07 µM. The TGI in the assay with SF-295 CNS turned out to be 4.15 µM; in the assay with SF-539 CNS it was 3.24 µM; in the assay with UO-31 renal, 2.88 µM.

On to `CC(Oc1ccc2c(-c3ccc(Cl)cc3)cc(=O)oc2c1)C(=O)O` (stereo unspecified), for which the TGI in the assay with A498 renal, in the assay on CAKI-1 renal, with CCRF-CEM leukemia, in the assay with HCT-116 colon, in the assay on M14 melanoma and in the assay on NCI-H460 lung was greater than 100 µM in each case. Besides, the TGI in the assay with SF-295 CNS, in the assay with SF-539 CNS and with UO-31 renal was greater than 100 µM throughout.

`Nc1ncc(-c2ccc3ncnc(Nc4cccc(Cl)c4)c3c2)cn1`: the GI50 in the assay on CAKI-1 renal was 0.0346 µM; in the assay with CCRF-CEM leukemia, 1.85 µM; in the assay on SF-295 CNS, 0.216 µM; in the assay on SF-539 CNS, 0.279 µM and 2.14 µM; with UO-31 renal, 0.452 µM. Also, the TGI in the assay with CCRF-CEM leukemia, in the assay on SF-539 CNS and with UO-31 renal was greater than 100 µM throughout.

Regarding `C=CCC1(C(=O)OC)CCC/C(=N\O)C1` (stereo unspecified), the TGI in the assay with CAKI-1 renal, in the assay with CCRF-CEM leukemia, in the assay with HCT-116 colon, with M14 melanoma, in the assay on SF-295 CNS and with SF-539 CNS was greater than 10 µM throughout.

As for `CCC1=C(c2ccc(OC)cc2)C(C)(C)Oc2c1ccc(O)c2CN1CCCC1`, the GI50 with A498 renal was 1.23 µM; in the assay with CAKI-1 renal it was 2.95 µM; with CCRF-CEM leukemia, 1.86 µM; with M14 melanoma it was 1.65 µM; with NCI-H460 lung, 1.7 µM; in the assay with OVCAR-5 ovarian, 4.1 µM. In addition, the GI50 in the assay with SF-295 CNS is 2.33 µM; in the assay with SF-539 CNS it was 3.05 µM; in the assay on UO-31 renal it was 2.19 µM. In addition, the TGI turned out to be 7.95 µM in the assay with A498 renal; 30.4 µM in the assay with CAKI-1 renal; 5.38 µM in the assay on CCRF-CEM leukemia; 3.39 µM in the assay on M14 melanoma; 3.59 µM with NCI-H460 lung; 29.4 µM in the assay with OVCAR-5 ovarian. Moreover, the TGI was 6.01 µM in the assay with SF-295 CNS, 17.2 µM in the assay on SF-539 CNS and greater than 100 µM with UO-31 renal.

With `CCN(CC)CCN(CC)CC.CCN(CC)CCN(CC)CC.[Cu+2].[Cu+2].[O-][Cl+3]([O-])([O-])[O-].[OH3+].[OH3+]`, the GI50 in the assay on A498 renal is 22.4 µM; in the assay with CAKI-1 renal it was greater than 100 µM; in the assay with CCRF-CEM leukemia, 37.6 µM; in the assay on HCT-116 colon it was 40.2 µM; with M14 melanoma it was greater than 100 µM; in the assay with NCI-H460 lung it was 15.5 µM. The results for the GI50 in the assay with SF-295 CNS, in the assay with SF-539 CNS and in the assay on UO-31 renal were 34.4 µM, greater than 100 µM and greater than 100 µM, respectively. For the same molecule, the TGI with A498 renal was 37.9 µM; in the assay on CAKI-1 renal, greater than 100 µM; in the assay with CCRF-CEM leukemia it was greater than 100 µM; in the assay with HCT-116 colon, greater than 100 µM; in the assay with M14 melanoma it was greater than 100 µM; in the assay with NCI-H460 lung, 37.6 µM. The TGI in the assay on SF-295 CNS is 98.9 µM; in the assay on SF-539 CNS, greater than 100 µM; in the assay on UO-31 renal, greater than 100 µM.

Regarding `O=[N+]([O-])c1nccn1CC(O)c1ccccc1` (stereo unspecified), the TGI in the assay on A498 renal, in the assay on CAKI-1 renal, with CCRF-CEM leukemia, with M14 melanoma, in the assay on NCI-H460 lung and with OVCAR-5 ovarian was greater than 100 µM in each case. Besides, the TGI in the assay on SF-295 CNS, in the assay on SF-539 CNS and in the assay with UO-31 renal was greater than 100 µM each time.

As for `C[C@@H]1C[C@H](N)C[C@H](c2ccncc2NC(=O)c2ccc(F)c(-c3c(F)cccc3F)n2)C1`, the GI50 in the assay with A498 renal was 11.6 µM and 4.53 µM; in the assay with CAKI-1 renal it was 7.51 µM; in the assay on HCT-116 colon it was 12.1 µM and 6.94 µM; with M14 melanoma it was 12.9 µM and 2.35 µM; in the assay on NCI-H460 lung, 13.7 µM and > 10 µM; in the assay with OVCAR-5 ovarian it was 12.3 µM and > 10 µM. Besides, the GI50 is 12.6 µM and > 10 µM in the assay on SF-295 CNS; 11.3 µM and > 10 µM in the assay on SF-539 CNS; 3.65 µM and 1.28 µM with UO-31 renal. The TGI was 24.8 µM and > 10 µM with A498 renal; greater than 10 µM in the assay with CAKI-1 renal; 24.4 µM and > 10 µM in the assay with HCT-116 colon; 27.2 µM and > 10 µM in the assay on M14 melanoma; 28.7 µM and > 10 µM in the assay on NCI-H460 lung; 25.9 µM and > 10 µM in the assay on OVCAR-5 ovarian. For the same molecule, the TGI with SF-295 CNS was 25.8 µM and > 10 µM; in the assay on SF-539 CNS, 23.5 µM and > 10 µM; with UO-31 renal, 18.6 µM and > 10 µM.

For the molecule `CCOC(=O)C1(C(=O)OCC)C(C(C)(C)C)=C(C)c2ccccc21`, the TGI is 40.9 µM in the assay with CCRF-CEM leukemia; 20.2 µM in the assay with HCT-116 colon; 39.5 µM in the assay with M14 melanoma; 26.3 µM with NCI-H460 lung; 31.4 µM in the assay on OVCAR-5 ovarian; 30.2 µM in the assay on SF-295 CNS. In addition, the TGI was determined as 32.8 µM with SF-539 CNS and 47.3 µM with UO-31 renal.

Turning to `CSc1ccc(C2=NN(C(C)=O)C(c3ccc(-c4cc(Cl)c(Cl)cc4Cl)o3)C2)cc1` (stereo unspecified), the GI50 in the assay on CAKI-1 renal was 19.2 µM; in the assay with CCRF-CEM leukemia, 21.5 µM; in the assay with HCT-116 colon it was 10.3 µM; in the assay on NCI-H460 lung, 17.2 µM; with OVCAR-5 ovarian, 14.3 µM; with SF-295 CNS, 18.3 µM. In addition, the results for the GI50 in the assay on SF-539 CNS and in the assay on UO-31 renal were 15.8 µM and 12.4 µM, respectively. Further, the TGI in the assay on CAKI-1 renal was 43.2 µM; in the assay with CCRF-CEM leukemia it was 47 µM; with HCT-116 colon it was 21.9 µM; in the assay on NCI-H460 lung it was 32.2 µM; with OVCAR-5 ovarian it was 27.4 µM; in the assay with SF-295 CNS it was 45.5 µM. For the same molecule, the TGI in the assay with SF-539 CNS was 29.5 µM; in the assay with UO-31 renal, 25.4 µM.
